{
  "source": "patent US20150285812A1",
  "about": "“Fluorescence-Labelled Fatty Acids and Uses Thereof” (SANOFI, priority 2012, published 2015)",
  "key": {"[1]": {"test": "log D7.4 determination by RP-HPLC, similar to the water/octanol partition coefficient method", "assay_type": "physicochemical", "conditions": "pH 7.4, RP-HPLC C18, range −1 to +6", "protocol": "log D7.4 values were determined by a method similar to the partition coefficient method in a water/octanol mixture and were carried out on an RP-HPLC from Waters Alliance (2795) having a C18 column (2×20 mm) with a gradient of morpholinesulfonic acid buffer (pH 7.4) and acetonitrile. The range was between −1 ([…]) to +6 (lipophilic)."}, "HSA [2]": {"molecular_target": "T1, HSA (Homo sapiens, UniProt P02768)", "T1 construct": "purchased Sigma Aldrich A1887", "T1 sequence (P02768 25-609)": "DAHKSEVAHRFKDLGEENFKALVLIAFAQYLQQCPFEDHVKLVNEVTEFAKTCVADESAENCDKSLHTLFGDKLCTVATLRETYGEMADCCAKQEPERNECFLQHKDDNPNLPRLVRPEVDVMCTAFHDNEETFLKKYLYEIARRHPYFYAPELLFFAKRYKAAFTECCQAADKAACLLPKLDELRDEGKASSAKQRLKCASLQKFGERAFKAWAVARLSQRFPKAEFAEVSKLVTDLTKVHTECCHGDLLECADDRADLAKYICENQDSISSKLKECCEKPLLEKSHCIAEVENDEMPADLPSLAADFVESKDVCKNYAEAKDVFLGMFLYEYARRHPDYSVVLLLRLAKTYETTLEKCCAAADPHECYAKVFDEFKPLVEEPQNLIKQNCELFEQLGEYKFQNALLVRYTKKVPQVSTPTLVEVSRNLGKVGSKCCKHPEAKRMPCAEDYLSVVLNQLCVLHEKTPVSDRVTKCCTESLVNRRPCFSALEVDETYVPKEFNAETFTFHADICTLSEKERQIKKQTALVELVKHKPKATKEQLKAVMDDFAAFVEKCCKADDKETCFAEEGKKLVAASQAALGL", "test": "Competition of NBD C12 (17) on HSA with ibuprofen and warfarin", "assay_type": "binding", "conditions": "from competition with warfarin and ibuprofen", "protocol": "In analogy to the experiments measuring the fluorescence of the fluorescence-labelled derivatives without HSA above, the solutions were pipetted from the 96 well microplate into a 384 well microplate. […] The fluorescence measurement without a wavelength scan was carried out in analogy to the above-referenced experiment."}, "amino acid Trp214 of HSA": {"molecular_target": "T2, amino acid Trp214 of HSA (Homo sapiens, UniProt P02768)", "T2 construct": "purchased Sigma Aldrich A1887", "T2 sequence (P02768 25-609)": "as above", "test": "FRET interactions of NBD C12 (17) with Trp214 of HSA", "assay_type": "binding", "conditions": "for tryptophan emission intensity of HSA after addition of the dye: emission 330 nm, without dye 170/171 FI", "protocol": "For determining FRET (Förster resonance energy transfer) interactions of NBD C12 (17) with amino acid Trp214 of HSA, concentrations of a dye-HSA mixture according to Table 8 were applied in an amount of 250 μl for each case.\n100 μl of mixture 7 were pipetted into a 96 well microplate and a wavelength scan for the absorption in the range from 250 nm to 700 nm was carried out. In each case 15 μl of the residual solutions 1 to 6 were pipetted four times into a black 384 well microplate and emission spectra of the solution in the range from 270 nm to 700 nm were recorded at 290 nm excitation wavelength of the Trp.\nFor dye NBD C12 (17) the FRET effect between the tryptophan of the HSA and the dye itself was investigated more precisely. The emission spectrum of the amino acid tryptophan overlapped with the absorption spectrum of the NBD dye, because the energy of the donor to be transferred must lie in the region of the possible energy absorption of the acceptor. This is the case when the two spectra overlap. For measurement, both solutions were employed in identical concentrations (25 μM) and the units of the fluorescence intensities (FIrel) and the absorption strength (ODrel) were standardized. An excitation wavelength of 290 nm was utilized for the emission spectrum of tryptophan.\nIn the next step, different concentrations of NBD C12 (17) were added to the HSA solution until a ratio of NBD to HSA of 1:1 was reached, and the emission spectra were measured.\nThe efficiency of the energy transfer occurring was calculated using the equation 3.4.\nThe distance R0, at which a 50% energy exchange takes place, was calculated according to the following equation. Furthermore, by transformation of said equation the real distance r of donor and acceptor was determined.\nThe fluorescence quantum yield for tryptophan is 0.15."}, "HSA [3]": {"molecular_target": "T1, HSA", "test": "Displacement of NBD derivatives on HSA by natural fatty acids C6 to C16 (fluorescence)", "assay_type": "binding", "conditions": "ranking among NBD C8, C10 and C12 from the competition experiments", "protocol": "Dilution series for competition experiments with the fatty acids C6 to C16 were diluted with phosphate-buffered saline solution (DPBS buffer). Geometric dilution series of each fatty acid were prepared in 384 well microplates with a starting concentration of 2500 μM and a dilution factor of 0.33 and also 9 dilution steps. The final volume of each concentration was 80 μl. The plated-out fatty acids were stored in the deep freeze (−25° C.) until use.\nFor displacement experiments 2.50 ml of a 25 μM HSA solution were used per dye derivative. Due to the subsequent dilution steps the HSA concentration was doubled twice such that 2.50 ml of […] solution were prepared.\nThe dye concentrations were also doubled twice by the following dilution steps. 2.50 ml of each dye solution were needed. 2.10 ml of the respective dye solution were then mixed with 2.10 ml of the 100 μM HSA solution. The respective concentrations of the solutions halve here once. 50 μl of the mixture per well were introduced into a 96 well microplate.\nThe fatty acid microplates were brought to room temperature and 50 μl each of the dilution series were pipetted into the HSA-dye mixture. The concentrations of all solution constituents were thereby halved once again. In analogy to the experiments measuring the fluorescence of the fluorescence-labelled derivatives without HSA above, the solutions were pipetted from the 96 well microplate into a 384 well microplate. Absorption was not measured. The fluorescence measurement without a wavelength scan was carried out in analogy to the above-referenced experiment.\nA concentration of 25 μM and a binding ratio of the NBD derivatives to HSA of 1:1 were employed for the displacement studies. For each dye derivative an NBD-HSA mixture with a concentration of 25 μM was prepared."}, "HSA [4]": {"molecular_target": "T1, HSA", "test": "Fluorescence of NBD and dansyl dyes with increasing HSA (FRET effect, emission maxima)", "assay_type": "binding", "protocol": "Absorption and fluorescence of fluorescence-labelled derivatives and HSA were carried out in a Varioskan™ microplate reader (Thermo Electron Corporation). 96 well (Costar, half area, flat bottom) microplates were used for absorption measurements and 384 well (Greiner Bio One, small volume, black) microplates from Greiner Bio One were used for fluorescence measurements. All measurements were carried out at pH 7.4 and room temperature.\n5.00 ml of a 400 μM solution were prepared from the HSA stock solution. From this solution a geometric dilution series with 7 dilution steps, a dilution factor of 0.5 and a final volume of each concentration of 2.5 ml were prepared.\nDefined concentrations of the fluorescence-labelled compounds were selected from the preceding experiment without HSA above and double-concentrated solutions thereof were prepared to take into account the later 1:1 dilution. For each fluorescence-labelled compound (12-17; 19-25) 1.00 ml of these double-concentrations was prepared. 50 μl of the dye solutions were introduced into a 96 well microplate and 50 μl each of the HSA dilution series were added. By mixing the solutions the concentrations of dye derivatives and the HSA solution were halved. The measurements of the absorption and fluorescence were carried out in analogy to the above experimental procedure without HSA.\nIn analogy to the absorption measurement the effect of HSA on the fluorescence of the dyes (12-17; 19-25) was determined. The same concentrations of NBD and dansyl dyes and the same concentration range for HSA as already described above were used."}, "[5]": {"conditions": "HSA 25 μM, NBD to HSA up to 1:1, excitation 290 nm"}},
  "note": "Entries after “also recorded” stand apart in the source; their conditions may differ.",
  "data": [
    {"smiles": "O=C(O)CCCCCCCCCCCNc1ccc([N+](=O)[O-])c2nonc12", "note": "[NBD C12 (17), 12-(7-Nitrobenzo[1,2,5]oxadiazol-4-ylamino)dodecanoic acid]", "values": [
      {"measurement": "chromatographic logD", "setting": "[1]", "value": 2.84},
      {"measurement": "log D7.4", "setting": "[1]", "value": 2.84},
      {"measurement": "binding site on HSA", "setting": "HSA [2]", "value": "neither bound the Sudlow's site I nor the Sudlow's site II"},
      {"measurement": "fluorescence of the dye on excitation of tryptophan", "setting": "amino acid Trp214 of HSA; [5]", "value": 15, "unit": "FI"},
      {"measurement": "tryptophan emission intensity of HSA after addition of the dye", "setting": "amino acid Trp214 of HSA; [5]", "value": 82, "unit": "FI"},
      {"measurement": "tryptophan emission intensity of HSA after addition of the dye", "setting": "amino acid Trp214 of HSA; HSA 25 μM, NBD to HSA up to 1:1, excitation 290 nm, listed as NBD dye C12 (17)", "value": 80, "unit": "FI"},
      {"measurement": "efficiency of the energy transfer", "setting": "amino acid Trp214 of HSA; calculated from I 82 FI and I0 171 FI", "value": "approximately 52%"},
      {"measurement": "relative binding affinity of the NBD dye for HSA", "setting": "HSA [3]", "value": "greatest binding affinity; also recorded: bounds best"},
      {"measurement": "Δλ, shift of emission maximum λem without HSA vs with HSA", "setting": "HSA [4]; NBD compound 25 μM, λex = 480 nm", "value": 16, "unit": "nm"},
      {"measurement": "change in fluorescence intensity with increasing HSA concentration", "setting": "HSA [4]; NBD derivatives 25 μM, HSA 1.56 to 200 μM, 480-550 nm, pH 7.4", "value": "increase in fluorescence intensity"}
    ]}
  ]
}
